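1) Cells in 96-well plates. 2) Compound, 48 h, 5 concentrations. 3) Linear interpolation between surrounding doses. 4) Unreached endpoint = highest concentration. GI50 = concentration required for 50% inhibition of growth.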 Activity calls are given as the source filed them. Cut-off read from the data, not from the text of the source: active = GI50 up to about 1.1 µM and inactive = higher.
How the values were obtained:
Test in all cases: inhibition of tumour cell growth, NCI panel, 48 h
[1] = test system: MDA-MB-435
[2] = test system: UACC-257
[3] = test system: RPMI-8226
[4] = test system: UO-31
[5] = test system: MDA-N
[6] = test system: RXF 393
[7] = test system: SR
[8] = test system: SNB-75
[9] = test system: UACC-62
[10] = test system: SN12C
[11] = test system: M14
[12] = test system: HCT-116
[13] = test system: 786-0
[14] = test system: HOP-62
[15] = test system: T47D
[16] = test system: SF-268
[17] = test system: SF-295
[18] = test system: MCF7
[19] = test system: IGROV-1
[20] = test system: SW-620
[21] = test system: DU-145
[22] = test system: OVCAR-3
[23] = test system: OVCAR-8
[24] = test system: NCI-H226
[25] = test system: KM12
[26] = test system: COLO 205
[27] = test system: HCC 2998
[28] = test system: OVCAR-5
[29] = test system: PC-3
[30] = test system: CAKI-1
[31] = test system: TK-10
[32] = test system: LOX IMVI
[33] = test system: SK-MEL-28
[34] = test system: BT-549
[35] = test system: NCI-H522
[36] = test system: SK-MEL-5
[37] = test system: K562
[38] = test system: OVCAR-4
[39] = test system: Malme-3M
[40] = test system: NCI/ADR-RES
[41] = test system: SK-MEL-2
[42] = test system: NCI-H23
[43] = test system: EKVX
[44] = test system: CCRF-CEM
[45] = test system: HCT-15
[46] = test system: SF-539
[47] = test system: SNB-19
[48] = test system: MOLT-4
[49] = test system: SK-OV-3
[50] = test system: A498
[51] = test system: HT-29
[52] = test system: ACHN
[53] = test system: HOP-92
[54] = test system: MDA-MB-231
[55] = test system: A549
[56] = test system: HL-60
[57] = test system: NCI-H460
[58] = test system: U-251
[59] = test system: Hs-578T

Measured: GI50

COCOc1ccc(C2(O)Oc3cc(OCOC)ccc3C2C)c(O)c1 (stereo not given)
inactive: [1] 14.9 µM | [2] 12.1 µM | [3] 11.7 µM | [4] 11.6 µM | [5] 15.3 µM | [6] 16.4 µM | [7] 6.95 µM | [8] 15.3 µM | [9] 12.9 µM | [10] 16.4 µM | [11] 16.6 µM | [12] 14.3 µM | [13] 17.8 µM | [14] 18 µM | [15] 12.3 µM | [16] 15.9 µM | [17] 14.5 µM | [18] 14.3 µM | [19] 17.6 µM | [20] 18.4 µM | [21] 13.1 µM | [22] 13.4 µM | [23] 16.8 µM | [24] 14.8 µM | [25] 16.7 µM | [26] 18.2 µM | [27] 13.5 µM | [28] 17.1 µM | [29] 13.2 µM | [30] 16.3 µM | [31] 17.9 µM | [32] 16.9 µM | [33] 17.2 µM | [34] 14.2 µM | [35] 18.2 µM | [36] 11 µM | [37] 10.7 µM | [38] 17.3 µM | [39] 15.3 µM | [40] 13.5 µM | [41] 18.4 µM | [42] 11.2 µM | [43] 14.6 µM | [44] 14.9 µM | [46] 15.7 µM | [47] 16 µM | [48] 10.3 µM | [49] 17.5 µM | [50] 15.5 µM | [51] 18.1 µM | [52] 12.9 µM | [53] 16.2 µM | [54] 12.3 µM | [55] 15.9 µM | [56] 10.5 µM | [57] 13.4 µM | [58] 15 µM
10.5 µM: [45]

COC(=O)n1c(C)c(C=O)c2ccc(OC)cc21
31.1 µM: [45]
inactive: [1] 21.1 µM | [2] 45.2 µM | [4] 34.4 µM | [5] > 10 µM | [6] 30.6 µM | [7] 34.5 µM | [8] 31.3 µM | [9] 21 µM | [10] 55.6 µM | [11] 36.3 µM | [12] 34.8 µM | [13] 36 µM | [14] 16.4 µM | [15] 72.3 µM | [16] > 10 µM | [17] 24.9 µM | [18] 37.2 µM | [19] 38.6 µM | [21] 41.1 µM | [22] 59.6 µM | [23] 81.7 µM | [25] 36.4 µM | [26] 46.9 µM | [27] 25.9 µM | [28] 54.7 µM | [29] 31.9 µM | [30] 38.9 µM | [31] 22.8 µM | [32] 30.1 µM | [34] 26.7 µM | [35] 38.5 µM | [36] 21.6 µM | [37] 38 µM | [38] > 100 µM | [39] 99.8 µM | [40] 49.4 µM | [41] 33.2 µM | [42] 28.6 µM | [43] 46.5 µM | [44] 32.4 µM | [46] 21.9 µM | [47] 42.7 µM | [48] 42.2 µM | [49] 33.8 µM | [51] 33.3 µM | [52] 33.1 µM | [54] > 100 µM | [55] 43.7 µM | [56] 31.3 µM | [57] 47.8 µM

NCc1ccc(O)c(O)c1
inactive: [1] > 100 µM | [2] > 100 µM | [3] > 100 µM | [4] > 100 µM | [5] > 100 µM | [6] > 100 µM | [7] 38.5 µM | [8] > 100 µM | [9] > 100 µM | [10] > 100 µM | [11] > 100 µM | [12] > 100 µM | [13] > 100 µM | [14] > 100 µM | [15] > 100 µM | [17] > 100 µM | [18] > 100 µM | [19] 60.1 µM | [20] > 100 µM | [21] > 100 µM | [22] 55.8 µM | [23] > 100 µM | [24] > 100 µM | [25] > 100 µM | [26] > 100 µM | [27] > 100 µM | [28] > 100 µM | [29] > 100 µM | [30] > 100 µM | [32] > 100 µM | [33] > 100 µM | [34] > 100 µM | [36] > 100 µM | [37] > 100 µM | [38] > 100 µM | [40] > 100 µM | [41] > 100 µM | [42] > 100 µM | [43] > 100 µM | [44] 53 µM | [46] > 100 µM | [47] > 100 µM | [48] 27.1 µM | [49] > 100 µM | [50] > 100 µM | [51] > 100 µM | [52] > 100 µM | [53] > 100 µM | [54] > 100 µM | [55] > 100 µM | [56] 12.5 µM | [57] > 100 µM | [58] > 100 µM
> 100 µM: [45]

Cc1c2c(OCCCCN3CCN(c4ncccn4)CC3)nn(C)c(=O)c2c(C)n1-c1ccccc1
inactive: [1] 18.7 µM | [2] 18.7 µM | [3] 20.2 µM | [4] 15.8 µM | [6] 18.6 µM | [8] 19.5 µM | [9] 16.8 µM | [10] 17.2 µM | [11] 20.7 µM | [12] 16.9 µM | [13] 18.1 µM | [14] 25.7 µM | [15] 17.9 µM | [16] 18.7 µM | [17] 16.4 µM | [18] 16.4 µM | [19] 17.8 µM | [20] 25.6 µM | [21] 17.1 µM | [22] 19.5 µM | [23] 24.7 µM | [24] 20.7 µM | [25] 18.4 µM | [26] 19 µM | [27] 20 µM | [28] 20.5 µM | [29] 20.4 µM | [30] 16.9 µM | [31] 19 µM | [32] 20.4 µM | [33] 18.4 µM | [34] 19.3 µM | [35] 18.4 µM | [36] 13.8 µM | [37] 30.8 µM | [38] 19.5 µM | [39] 20.2 µM | [40] 21.3 µM | [41] 19.6 µM | [42] 19.1 µM | [43] 19.1 µM | [59] 26.2 µM | [44] 31.1 µM | [46] 17.6 µM | [47] 19 µM | [48] 26.8 µM | [49] 18.7 µM | [50] 16.9 µM | [51] 24.8 µM | [52] 17.4 µM | [53] 16.4 µM | [54] 16 µM | [55] 20.7 µM | [56] 21.1 µM | [57] 17.4 µM | [58] 18.1 µM
17.8 µM: [45]

Source: ChEMBL document CHEMBL1201862, “PubChem BioAssay data set” (2004)
